# According to US20230033285A1, “Protease Inhibitors for Treatment of Coronavirus Infections” (The Scripps Research Institute, priority 2021, published 2023):
# Test system: SARS-CoV-2
# Assay: microbe, parasite or virus in culture
# Type: cell-based
# Settings: Severe acute respiratory syndrome coronavirus 2, HeLa-ACE2, 24 h, read-out: EC50, μM (Hela)
row,SMILES,EC50
1,"CC(C)C[C@H](NC(=O)OCc1cccc(Cl)c1)C(=O)N[C@@H](C[C@@H]1CCNC1=O)C(=O)COC(=O)Cc1ccccc1 [Compound 121, (S)-3-((S)-2-((((3-chlorobenzyl)oxy)carbonyl)amino)-4-methylpentanamido)-2-oxo-4-((S)-2-oxopyrrolidin-3-yl)butyl 2-phenylacetate]",> 1 µM
2,"CC(C)(C)[C@H](NC(=O)C(F)(F)F)C(=O)N1C[C@H]2[C@@H]([C@H]1C(=O)N[C@H](C=O)C[C@@H]1CCCNC1=O)C2(C)C [Compound 132, (1R,2S,5S)-3-((S)-3,3-dimethyl-2-(2,2,2-trifluoroacetamido)butanoyl)-6,6-dimethyl-N-((S)-1-oxo-3-((S)-2-oxopiperidin-3-yl)propan-2-yl)-3-azabicyclo[3.1.0]hexane-2-carboxamide]",0.5 to 1 µM

# Same assay, conditions: Severe acute respiratory syndrome coronavirus 2; HeLa-ACE2 cells infected with SARS-CoV-2, 24 h, immunofluorescence of infected cells; read-out: EC50, μM (Hela)
row,SMILES,EC50
1,"CCCCCCC(=O)OCC(=O)[C@H](C[C@@H]1CCNC1=O)NC(=O)[C@H](CC(C)C)NC(=O)c1cc2ccccc2[nH]1 [Compound 118, (S)-3-((S)-2-(1H-indole-2-carboxamido)-4-methylpentanamido)-2-oxo-4-((S)-2-oxopyrrolidin-3-yl)butyl heptanoate]",0.05 to 0.2 µM
2,"CCCCCCC(=O)OCC(=O)[C@H](C[C@@H]1CCNC1=O)NC(=O)[C@H](CC(C)C)NC(=O)c1cc2c(OC)cccc2[nH]1 [Compound 119, (S)-3-((S)-2-(4-methoxy-1H-indole-2-carboxamido)-4-methylpentanamido)-2-oxo-4-((S)-2-oxopyrrolidin-3-yl)butyl heptanoate]",0.05 to 0.2 µM
3,"CC(C)C[C@H](NC(=O)OCc1cccc(Cl)c1)C(=O)N[C@@H](C[C@@H]1CCNC1=O)C(=O)COC(=O)C(C)C [Compound 120, (S)-3-((S)-2-((((3-chlorobenzyl)oxy)carbonyl)amino)-4-methylpentanamido)-2-oxo-4-((S)-2-oxopyrrolidin-3-yl)butyl isobutyrate]",> 1 µM
4,"CC(C)C[C@H](NC(=O)OCc1cccc(Cl)c1)C(=O)N[C@@H](C[C@@H]1CCNC1=O)C(=O)CO [Compound 122, 3-chlorobenzyl ((S)-1-(((S)-4-hydroxy-3-oxo-1-((S)-2-oxopyrrolidin-3-yl)butan-2-yl)amino)-4-methyl-1-oxopentan-2-yl)carbamate]",> 1 µM
5,"COc1cccc2[nH]c(C(=O)N[C@@H](CC(C)C)C(=O)N[C@@H](C[C@@H]3CCNC3=O)C(=O)COC(=O)C3CCN(C4CCCCC4)CC3)cc12 [Compound 123, (S)-3-((S)-2-(4-methoxy-1H-indole-2-carboxamido)-4-methylpentanamido)-2-oxo-4-((S)-2-oxopyrrolidin-3-yl)butyl 1-cyclohexylpiperidine-4-carboxylate]",0.5 to 1 µM
6,"COc1cccc2[nH]c(C(=O)N[C@@H](CC(C)C)C(=O)N[C@@H](C[C@@H]3CCNC3=O)C(=O)COC(=O)C3CCC(N4CCCCC4)CC3)cc12 (stereo partly drawn) [Compound 124, (S)-3-((S)-2-(4-methoxy-1H-indole-2-carboxamido)-4-methylpentanamido)-2-oxo-4-((S)-2-oxopyrrolidin-3-yl)butyl 4-(piperidin-1-yl)cyclohexane-1-carboxylate]",> 1 µM
7,"O=C[C@H](C[C@@H]1CCNC1=O)NC(=O)[C@H](CC1CC1)NC(=O)c1cc(-c2ccccc2F)on1 [Compound 125, N-((S)-3-cyclopropyl-1-oxo-1-(((S)-1-oxo-3-((S)-2-oxopyrrolidin-3-yl)propan-2-yl)amino)propan-2-yl)-5-(2-fluorophenyl)isoxazole-3-carboxamide]",0.05 to 0.2 µM
8,"CC(C)C[C@H](NC(=O)c1cc(-c2ccccc2F)on1)C(=O)N[C@H](C=O)C[C@@H]1CCCNC1=O [Compound 126, 5-(2-fluorophenyl)-N-((S)-4-methyl-1-oxo-1-(((S)-1-oxo-3-((S)-2-oxopiperidin-3-yl)propan-2-yl)amino)pentan-2-yl)isoxazole-3-carboxamide]",0.05 to 0.2 µM
9,"CC(C)C[C@H](NC(=O)c1cc(-c2ccccn2)on1)C(=O)N[C@H](C=O)C[C@@H]1CCCNC1=O [Compound 127, N-((S)-4-methyl-1-oxo-1-(((S)-1-oxo-3-((S)-2-oxopiperidin-3-yl)propan-2-yl)amino)pentan-2-yl)-5-(pyridin-2-yl)isoxazole-3-carboxamide]",0.5 to 1 µM
10,"CC(C)C[C@H](NC(=O)c1cc(-c2ccccn2)on1)C(=O)N[C@H](C=O)C[C@@H]1CCNC1=O [Compound 128, N-((S)-4-methyl-1-oxo-1-(((S)-1-oxo-3-((S)-2-oxopyrrolidin-3-yl)propan-2-yl)amino)pentan-2-yl)-5-(pyridin-2-yl)isoxazole-3-carboxamide]",> 1 µM
11,"COc1cccc2[nH]c(C(=O)N[C@@H](CC(C)C)C(=O)N[C@@H](C[C@@H]3CCCNC3=O)C(=O)CO)cc12 [Compound 129, N-((S)-1-(((S)-4-hydroxy-3-oxo-1-((S)-2-oxopiperidin-3-yl)butan-2-yl)amino)-4-methyl-1-oxopentan-2-yl)-4-methoxy-1H-indole-2-carboxamide]",0.5 to 1 µM
12,"CC1(C)[C@@H]2[C@@H](C(=O)N[C@H](C#N)C[C@@H]3CCCNC3=O)N(C(=O)c3ccnc(C(F)(F)F)c3)C[C@@H]21 [Compound 130, (1R,2S,5S)-N-((S)-1-cyano-2-((S)-2-oxopiperidin-3-yl)ethyl)-6,6-dimethyl-3-(2-(trifluoromethyl)isonicotinoyl)-3-azabicyclo[3.1.0]hexane-2-carboxamide]",> 1 µM
13,"CC(=O)NC(CC(C)C(F)(F)F)C(=O)N1C[C@H]2[C@@H]([C@H]1C(=O)N[C@H](C#N)C[C@@H]1CCCNC1=O)C2(C)C (stereo partly drawn) [Compound 131, (1R,2S,5S)-3-(2-acetamido-5,5,5-trifluoro-4-methylpentanoyl)-N-((S)-1-cyano-2-((S)-2-oxopiperidin-3-yl)ethyl)-6,6-dimethyl-3-azabicyclo[3.1.0]hexane-2-carboxamide]",0.5 to 1 µM
14,"CC(C)(C)C[C@H](NC(=O)C(=O)Nc1ccccc1C(F)(F)F)C(=O)N[C@H](C[C@@H]1CCCNC1=O)C(=O)CO [Compound 133, N^1-((S)-1-(((R)-4-hydroxy-3-oxo-1-((S)-2-oxopiperidin-3-yl)butan-2-yl)amino)-4,4-dimethyl-1-oxopentan-2-yl)-N^2-(2-(trifluoromethyl)phenyl)oxalamide]",> 1 µM
15,"CC(C)C[C@@H](O)C(=O)N[C@@H](Cc1cccc(F)c1)C(=O)N[C@@H](C[C@@H]1CCCNC1=O)C(=O)CO [Compound 134, (R)-N-((S)-3-(3-fluorophenyl)-1-(((S)-4-hydroxy-3-oxo-1-((S)-2-oxopiperidin-3-yl)butan-2-yl)amino)-1-oxopropan-2-yl)-2-hydroxy-4-methylpentanamide]",> 1 µM
16,"CC(C)C[C@H](NC(=O)C(=O)NC12CCC(F)(CC1)CC2)C(=O)N[C@@H](C[C@@H]1CCCNC1=O)C(=O)CO [Compound 135, N^1-(4-fluorobicyclo[2.2.2]octan-1-yl)-N^2-((S)-1-(((S)-4-hydroxy-3-oxo-1-((S)-2-oxopiperidin-3-yl)butan-2-yl)amino)-4-methyl-1-oxopentan-2-yl)oxalamide]",> 1 µM
17,"CC(C)CCC(=O)N[C@@H](CC(C)(C)C)C(=O)N[C@H](C#N)C[C@@H]1CCCNC1=O [Compound 136, (S)-N-((S)-1-cyano-2-((S)-2-oxopiperidin-3-yl)ethyl)-4,4-dimethyl-2-(4-methylpentanamido)pentanamide]",> 1 µM
18,"CCCCCCCCCCCCCCC(=O)OCC(=O)[C@H](C[C@@H]1CCNC1=O)NC(=O)[C@H](CC(C)C)NC(=O)c1cc2c(OC)cccc2[nH]1 [Compound 137, (S)-3-((S)-2-(4-methoxy-1H-indole-2-carboxamido)-4-methylpentanamido)-2-oxo-4-((S)-2-oxopyrrolidin-3-yl)butyl pentadecanoate]",0.2 to 0.5 µM
19,"CC(C)C[C@H](NC(=O)C(=O)Nc1ccccc1F)C(=O)N[C@@H](C[C@@H]1CCCNC1=O)C(=O)COC(=O)c1ccccc1C#N [Compound 138, (S)-3-((S)-2-(2-((2-fluorophenyl)amino)-2-oxoacetamido)-4-methylpentanamido)-2-oxo-4-((S)-2-oxopiperidin-3-yl)butyl 2-cyanobenzoate]",0.05 to 0.2 µM
